The source of these data is patent US7960562B2, “Propane-1,3-dione derivative or salt thereof” (Astellas Pharma Inc., priority 2005, dated 2011).

For the first test, the target named is T1, human GnRH receptor (Homo sapiens, UniProt P30968).
T1 sequence (P30968 1-328): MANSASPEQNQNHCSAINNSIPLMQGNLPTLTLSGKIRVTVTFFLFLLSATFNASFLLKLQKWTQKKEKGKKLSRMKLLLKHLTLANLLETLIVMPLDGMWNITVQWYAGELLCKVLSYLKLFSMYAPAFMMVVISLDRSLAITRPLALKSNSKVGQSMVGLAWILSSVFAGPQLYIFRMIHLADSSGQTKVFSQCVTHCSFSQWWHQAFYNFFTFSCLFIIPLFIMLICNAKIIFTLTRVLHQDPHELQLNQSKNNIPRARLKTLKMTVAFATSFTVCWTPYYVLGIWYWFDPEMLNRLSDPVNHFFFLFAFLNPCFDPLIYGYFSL
The experiment in a line: Test for GnRH receptor antagonistic effect (inhibition of 125I-D-Trp6-LHRH binding). The settings on record: Table 1; read-out: IC50 (concentration that inhibits 50% of the binding of 125I-D-Trp6-LHRH to a human GnRH receptor). The method, then: The GnRH receptor antagonistic effects of the compounds of the present invention were evaluated by calculating their concentration that inhibit 50% of the binding of ^125I-D-Trp^6-LHRH to a human GnRH receptor (IC50), according to the description in Patent Reference 1, page 56 “1. Test for GNRH Receptor Antagonistic Effect”.
Accordingly, for confirming the usefulness of “group of —SO2—R^3”, the activities of the compounds of the present invention was compared with those of the comparative compounds having —CO—R^3 group.
For the compound `CC(C)(O)C(=N)NS(=O)(=O)c1cccc(C(=O)C(C(=O)c2cccc(F)c2)=C2Nc3ccccc3N2)c1` [Example 211], the IC50 was 0.094 nM.
Same read-out and setting: the figure for `CC(=N)NS(=O)(=O)c1cccc(C(=O)C(C(=O)c2cccc(F)c2)=C2Nc3ccccc3N2)c1` [Example 245] is 0.058 nM; for `CC(C)(O)C(=N)NS(=O)(=O)c1cc(C(=O)C(C(=O)c2cccc(F)c2)=C2Nc3ccccc3N2)ccc1F` [Example 662] it is 0.24 nM.
On the same count and under the same terms, the figure for `C[C@@H](O)C(=N)NS(=O)(=O)c1cc(C(=O)C(C(=O)c2cccc(F)c2)=C2Nc3ccccc3N2)ccc1F` [Example 696, (2R)-N-({5-[2-(1,3-dihydro-2H-benzimidazol-2-ylidene)-3-(3-fluorophenyl)-3-oxopropanoyl]-2-fluorophenyl}sulfonyl)-2-hydroxypropanimidamide] is 0.18 nM.

Still in this test, the particulars now being: Table 2; read-out: IC50 (GnRH receptor binding), SO2-R3 compounds versus comparative CO-R3 compounds.
As to `CC(=O)NC(N)=NC(=O)c1cccc(C(=O)C(C(=O)c2cc(F)cc(F)c2)=C2Nc3ccccc3N2)c1` [Comparative Example 3, reference compound], the IC50 was 16 nM.
`CC(=N)NS(=O)(=O)c1cccc(C(=O)C(C(=O)c2cc(F)cc(F)c2)=C2Nc3ccccc3N2)c1` [Example 73]: the IC50 was 0.053 nM.
Still for that read-out and setting: the figure for `CC(=O)NC(N)=NS(=O)(=O)c1cccc(C(=O)C(C(=O)c2cc(F)cc(F)c2)=C2Nc3ccccc3N2)c1` [Example 74] is 0.56 nM.
`O=C(C(C(=O)c1cccc(S(=O)(=O)NCCO)c1)=C1Nc2ccccc2N1)c1cc(F)cc(F)c1` [Example 77]: the IC50 is 0.066 nM.
Still for that read-out and setting: the same measure for `NC(N)=NS(=O)(=O)c1cccc(C(=O)C(C(=O)c2cc(F)cc(F)c2)=C2Nc3ccccc3N2)c1` [Example 89]: 0.022 nM.
Consider `CC(=N)NC(=O)c1cccc(C(=O)C(C(=O)c2cc(F)cc(F)c2)=C2Nc3ccccc3N2)c1` [compound 1, reference compound], for which the IC50 stood at 7.1 nM.
With `O=C(NCCO)c1cccc(C(=O)C(C(=O)c2cc(F)cc(F)c2)=C2Nc3ccccc3N2)c1` [compound 4, reference compound], the IC50 stood at 9.6 nM.
